From ChEMBL document CHEMBL2073988, “Secretory transport of methylprednisolone possibly mediated by P-glycoprotein in Caco-2 cells” (Biol Pharm Bull, 2002)

Target: ATP-dependent translocase ABCB1 (Homo sapiens, UniProt P08183)
Assay: TP_TRANSPORTER: transepithelial transport (basal to apical), inhibited by Verapamil in Caco-2 cells
Assay type: functional, cell-based

Sequence of ATP-dependent translocase ABCB1 (P08183 whole entry): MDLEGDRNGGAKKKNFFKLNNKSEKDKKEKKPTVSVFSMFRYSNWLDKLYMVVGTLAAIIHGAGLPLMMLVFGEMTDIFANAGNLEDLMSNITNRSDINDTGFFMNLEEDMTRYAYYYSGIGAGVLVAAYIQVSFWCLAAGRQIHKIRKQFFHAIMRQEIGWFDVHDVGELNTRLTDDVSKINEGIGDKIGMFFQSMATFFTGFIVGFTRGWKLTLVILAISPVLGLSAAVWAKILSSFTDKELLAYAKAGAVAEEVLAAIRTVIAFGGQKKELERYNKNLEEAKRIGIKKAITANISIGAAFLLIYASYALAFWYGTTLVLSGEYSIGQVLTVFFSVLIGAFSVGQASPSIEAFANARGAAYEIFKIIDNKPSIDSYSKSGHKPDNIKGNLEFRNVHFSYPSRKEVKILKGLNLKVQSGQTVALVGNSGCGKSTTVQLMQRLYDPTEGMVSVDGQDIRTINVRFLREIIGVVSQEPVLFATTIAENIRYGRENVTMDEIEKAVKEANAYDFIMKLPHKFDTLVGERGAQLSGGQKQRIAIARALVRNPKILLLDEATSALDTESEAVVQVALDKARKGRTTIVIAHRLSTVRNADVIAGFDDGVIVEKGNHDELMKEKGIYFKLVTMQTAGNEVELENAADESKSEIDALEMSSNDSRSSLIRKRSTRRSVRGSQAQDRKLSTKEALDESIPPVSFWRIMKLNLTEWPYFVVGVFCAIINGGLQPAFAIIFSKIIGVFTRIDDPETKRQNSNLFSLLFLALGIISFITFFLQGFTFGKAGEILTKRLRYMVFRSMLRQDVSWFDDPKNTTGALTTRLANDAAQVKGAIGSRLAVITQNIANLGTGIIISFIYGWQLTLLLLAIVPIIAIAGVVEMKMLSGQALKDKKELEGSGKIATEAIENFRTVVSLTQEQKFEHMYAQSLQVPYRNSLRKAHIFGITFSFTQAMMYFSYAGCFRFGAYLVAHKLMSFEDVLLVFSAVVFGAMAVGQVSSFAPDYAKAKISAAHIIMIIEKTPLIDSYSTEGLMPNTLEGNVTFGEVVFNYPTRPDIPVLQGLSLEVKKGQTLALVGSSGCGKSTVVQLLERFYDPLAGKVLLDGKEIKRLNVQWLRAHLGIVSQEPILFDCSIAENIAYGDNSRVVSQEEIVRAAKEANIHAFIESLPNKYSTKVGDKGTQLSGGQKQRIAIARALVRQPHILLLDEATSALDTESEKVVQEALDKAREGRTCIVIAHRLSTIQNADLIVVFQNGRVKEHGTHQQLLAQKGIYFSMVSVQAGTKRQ

Activity: substrate [+]
SMILES: C[C@H]1C[C@@H]2[C@H]([C@@H](O)C[C@@]3(C)[C@H]2CC[C@]3(O)C(=O)CO)[C@@]2(C)C=CC(=O)C=C12 [METHYLPREDNISOLONE]
